Columns and labels:
IHNV (传染性造血器官坏死病病毒) [1] = test: Viral load in organs of IHNV-infected rainbow trout (IHNV-G quantification); type: in vivo; conditions: 5 d after IHNV infection, DCA 0.2 mg/fish fed
zebrafish (斑马鱼) = test: Toxicity to zebrafish by organ histology (H&E), uninfected; type: in vivo; conditions: DCA-fed (0.2 mg/fish), liver, intestine, kidney histology
IHNV (传染性造血器官坏死病病毒) [2] = test: Histopathology (H&E) of organs of IHNV-infected rainbow trout; type: in vivo; conditions: rainbow trout liver, intestine, kidney, 5 d after IHNV infection, versus IHNV infection group
SVCV (鲤春病毒血症病毒) [3] = test: Survival of SVCV-infected zebrafish fed deoxycholic acid; type: in vivo; conditions: 0.2 mg/fish per feeding, 7 days before injection of 10^4 PFU SVCV, 14 d observation, 16 °C; control 23.33%
rainbow trout (虹鳟) = test: Toxicity to rainbow trout by organ histology (H&E), uninfected; type: in vivo; conditions: DCA-fed (0.2 mg/fish), liver, intestine, kidney histology
IHNV (传染性造血器官坏死病病毒) [4] = test: Inhibition of IHNV in EPC cells (RT-qPCR of IHNV-G gene); type: cell-based; conditions: 50 μM, 0.1 MOI IHNV, 16 °C, 24 h, P<0.0001 vs control
SVCV (鲤春病毒血症病毒) [5] = test: Inhibition of SVCV virus particle formation (plaque assay on EPC cell supernatant); type: cell-based; conditions: 50 μM, EPC cells, 0.1 MOI SVCV, 28 °C, 24 h; control 10^6.11 PFU/mL
[6] = test system: SVCV-G protein (SVCV-G蛋白); test: Inhibition of SVCV-G protein expression in EPC cells (western blot); type: cell-based; conditions: 1-50 μM, increasing concentration, 0.1 MOI SVCV, 28 °C, 24 h
IHNV (传染性造血器官坏死病病毒) [7] = test: Survival of IHNV-infected rainbow trout fed deoxycholic acid; type: in vivo; conditions: 0.2 mg/fish per feeding, 7 days before injection of 10^4 PFU IHNV, 14 d observation, 16 °C; control 30%
SVCV (鲤春病毒血症病毒) [8] = test: Viral load in organs of SVCV-infected zebrafish (absolute quantification of SVCV-G); type: in vivo; conditions: 5 d after SVCV infection, DCA 0.2 mg/fish fed
SVCV (鲤春病毒血症病毒) [9] = test: Histopathology (H&E) of organs of SVCV-infected zebrafish; type: in vivo; conditions: zebrafish liver, intestine, kidney, 5 d after SVCV infection, versus SVCV infection group
SVCV (鲤春病毒血症病毒) [10] = test: Inhibition of SVCV-G gene expression in EPC cells (RT-qPCR); type: cell-based; conditions: 12 h pretreatment, 0.1 MOI SVCV, 28 °C, 24 h

Structure (SMILES): C[C@H](CCC(=O)O)[C@H]1CC[C@H]2[C@@H]3CC[C@@H]4C[C@H](O)CC[C@]4(C)[C@H]3C[C@H](O)[C@]12C [去氧胆酸]
- viral load in intestine (IHNV (传染性造血器官坏死病病毒) [1]; intestine): 显著降低
- viral load in kidney (IHNV (传染性造血器官坏死病病毒) [1]; kidney): 显著降低
- toxicity to zebrafish (zebrafish (斑马鱼)): 没有毒性
- pathological damage caused by virus infection in organs (IHNV (传染性造血器官坏死病病毒) [2]): 明显减轻
- survival rate of SVCV-infected zebrafish (SVCV (鲤春病毒血症病毒) [3]): 66.67%
- toxicity to rainbow trout (rainbow trout (虹鳟)): 没有毒性
- IHNV viral load (IHNV (传染性造血器官坏死病病毒) [4]): 显著降低
- SVCV detection in cell supernatant (SVCV (鲤春病毒血症病毒) [5]): 无法被检测到
- SVCV G protein expression compared with control [6]: 依次降低
- survival rate of IHNV-infected rainbow trout (IHNV (传染性造血器官坏死病病毒) [7]): 60%
- viral load in intestine (SVCV (鲤春病毒血症病毒) [8]; intestine): 显著降低
- viral load in kidney (SVCV (鲤春病毒血症病毒) [8]; kidney): 显著降低
- viral load in liver (SVCV (鲤春病毒血症病毒) [8]; liver): 显著降低
- pathological damage caused by virus infection in organs (SVCV (鲤春病毒血症病毒) [9]): 明显减轻
- inhibition at 1 µM (SVCV (鲤春病毒血症病毒) [10]; 1 μM, P<0.01, read-out: decrease of SVCV-G gene expression relative to control): 30.2%
- inhibition at 5 µM (SVCV (鲤春病毒血症病毒) [10]; 5 μM, P<0.001, read-out: decrease of SVCV-G gene expression relative to control): 49.2%
- inhibition at 10 µM (SVCV (鲤春病毒血症病毒) [10]; 10 μM, P<0.001, read-out: decrease of SVCV-G gene expression relative to control): 50.7%
- inhibition at 20 µM (SVCV (鲤春病毒血症病毒) [10]; 20 μM, P<0.0001, read-out: decrease of SVCV-G gene expression relative to control): 68%
- inhibition at 50 µM (SVCV (鲤春病毒血症病毒) [10]; 50 μM, P<0.0001, read-out: decrease of SVCV-G gene expression relative to control): 92%

From CN116919972A, “去氧胆酸在制备抗水生病毒感染的药物或添加剂中的应用” (priority 2023, dated 2023)
